Here are results for two molecules from patent EP4215193A1, “METHOD FOR THE CONSERVATIVE TREATMENT OF ENDOMETRIAL POLYPS” (Kiselev, Vsevolod Ivanovich, priority 2020, dated 2022).

The nature of assay [1]: Clinical comparison of efficacy of DIM + βCD complex and crystalline DIM taken orally. It counts as in vivo. The conditions noted are these: equal dosages, all studied groups of patients. From the text: Clinical studies have compared the efficacy of the water-soluble DIM + βCD complex and crystalline 3,3'-diindolylmethane in equal dosages when taken orally. […]
Assay [2] has as its system pathological neoangiogenesis. To be noted: subcutaneously, 5 mg / kg, daily; cited from earlier work.

For the molecule 3,3'-diindolylmethane [Crystal DIM], the clinical response entry in assay [1] was “absence of such”.

Turning to `c1ccc2c(Cc3c[nH]c4ccccc34)c[nH]c2c1` [DIM, 3,3'-diindolylmethane], the “inhibition of pathological neoangiogenesis” value in assay [2] is given as 74%.
